From the Kinase Knowledgebase extract (Sharma et al. 2016)
pIC50: −log10 of the molar value. Where “and” joins values, the source holds several entries; their conditions need not be identical. Equal values may be shown once.

Assays:
PIK3CG (human) = PIK3CG (human) (UniProt P48736); assay: Assessment of PIK3CG Kinase Activity
PIK3CA (human) = PIK3CA (human) (UniProt P42336); assay: Assessment of PIK3CA Kinase Activity
PIK3CG;PIK3CA (human) [1] = target: PIK3CG;PIK3CA (human) (UniProt P48736); assay: Assessment of Antiproliferation Activity in LNCaP Cells
PIK3CG;PIK3CA (human) [2] = target: PIK3CG;PIK3CA (human) (UniProt P48736); assay: Assessment of Antiproliferation Activity in PC3-MM2 Cells; details: pc3mm2
PIK3CG;PIK3CA (human) [3] = target: PIK3CG;PIK3CA (human) (UniProt P48736); assay: Assessment of Antiproliferation Activity in MDA-MB-361 Cells

Chain of PIK3CA (human) (P42336 whole entry, looked up): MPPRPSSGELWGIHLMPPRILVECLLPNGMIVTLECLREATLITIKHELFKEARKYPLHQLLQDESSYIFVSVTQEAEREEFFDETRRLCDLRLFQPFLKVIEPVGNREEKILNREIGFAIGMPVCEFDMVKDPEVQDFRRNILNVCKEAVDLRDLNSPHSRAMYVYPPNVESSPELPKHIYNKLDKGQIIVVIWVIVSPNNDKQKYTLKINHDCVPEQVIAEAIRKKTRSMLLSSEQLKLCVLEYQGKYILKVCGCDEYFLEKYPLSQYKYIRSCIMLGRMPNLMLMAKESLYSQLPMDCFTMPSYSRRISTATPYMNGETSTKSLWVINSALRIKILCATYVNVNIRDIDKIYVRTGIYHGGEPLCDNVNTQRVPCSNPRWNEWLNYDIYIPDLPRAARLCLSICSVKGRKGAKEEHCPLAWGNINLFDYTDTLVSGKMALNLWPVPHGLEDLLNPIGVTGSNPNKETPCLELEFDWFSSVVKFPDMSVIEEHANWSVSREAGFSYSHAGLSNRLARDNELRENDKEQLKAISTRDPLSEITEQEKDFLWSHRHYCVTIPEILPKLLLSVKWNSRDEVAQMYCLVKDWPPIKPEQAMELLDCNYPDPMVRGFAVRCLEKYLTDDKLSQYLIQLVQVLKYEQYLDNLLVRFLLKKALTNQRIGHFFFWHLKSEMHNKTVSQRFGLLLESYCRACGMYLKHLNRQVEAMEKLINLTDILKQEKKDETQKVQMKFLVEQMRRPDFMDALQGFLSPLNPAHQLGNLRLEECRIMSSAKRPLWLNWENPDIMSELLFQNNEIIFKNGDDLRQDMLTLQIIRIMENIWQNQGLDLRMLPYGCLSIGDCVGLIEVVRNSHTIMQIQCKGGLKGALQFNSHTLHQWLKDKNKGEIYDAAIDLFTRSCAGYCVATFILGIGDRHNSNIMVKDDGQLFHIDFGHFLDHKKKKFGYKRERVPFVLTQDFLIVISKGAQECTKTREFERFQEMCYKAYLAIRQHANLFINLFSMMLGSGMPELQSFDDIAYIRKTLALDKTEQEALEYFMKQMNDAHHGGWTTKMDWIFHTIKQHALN
Chain of PIK3CG;PIK3CA (human) (P48736 whole entry, looked up): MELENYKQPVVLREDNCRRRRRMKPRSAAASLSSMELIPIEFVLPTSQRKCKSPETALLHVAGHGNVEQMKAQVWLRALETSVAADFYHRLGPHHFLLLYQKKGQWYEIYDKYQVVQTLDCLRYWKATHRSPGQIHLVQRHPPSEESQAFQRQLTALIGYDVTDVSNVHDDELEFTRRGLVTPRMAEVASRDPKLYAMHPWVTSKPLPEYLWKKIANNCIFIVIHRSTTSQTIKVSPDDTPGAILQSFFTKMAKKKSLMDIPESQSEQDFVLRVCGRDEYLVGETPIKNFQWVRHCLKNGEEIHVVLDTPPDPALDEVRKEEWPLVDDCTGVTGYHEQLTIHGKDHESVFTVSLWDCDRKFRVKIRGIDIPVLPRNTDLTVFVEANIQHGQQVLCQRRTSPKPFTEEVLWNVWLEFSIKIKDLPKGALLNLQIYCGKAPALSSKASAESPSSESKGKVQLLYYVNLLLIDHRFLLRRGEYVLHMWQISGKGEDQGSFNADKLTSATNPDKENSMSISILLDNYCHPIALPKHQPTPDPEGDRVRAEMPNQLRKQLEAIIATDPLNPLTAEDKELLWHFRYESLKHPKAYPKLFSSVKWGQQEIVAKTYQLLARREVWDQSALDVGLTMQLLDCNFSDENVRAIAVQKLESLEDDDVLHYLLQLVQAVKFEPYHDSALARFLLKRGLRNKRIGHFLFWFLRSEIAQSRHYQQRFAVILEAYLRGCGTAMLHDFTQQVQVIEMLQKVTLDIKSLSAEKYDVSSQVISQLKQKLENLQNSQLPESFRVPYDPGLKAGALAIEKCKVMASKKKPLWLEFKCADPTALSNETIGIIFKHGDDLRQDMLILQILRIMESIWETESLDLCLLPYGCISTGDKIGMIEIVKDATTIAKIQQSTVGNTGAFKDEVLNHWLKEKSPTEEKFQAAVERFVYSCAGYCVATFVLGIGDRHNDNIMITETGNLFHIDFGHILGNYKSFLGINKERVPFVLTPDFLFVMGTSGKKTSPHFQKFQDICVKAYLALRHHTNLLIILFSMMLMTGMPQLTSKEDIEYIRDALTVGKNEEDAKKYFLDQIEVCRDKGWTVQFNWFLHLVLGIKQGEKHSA
Chain of PIK3CG (human) (P48736 whole entry, looked up): as above

Row | SMILES | pIC50 (PIK3CG (human)) | pIC50 (PIK3CA (human)) | pIC50 (PIK3CG;PIK3CA (human) [1]) | pIC50 (PIK3CG;PIK3CA (human) [2]) | pIC50 (PIK3CG;PIK3CA (human) [3])
1 | NCCCNc1nc(-c2ccc(NC(=O)Nc3cccnc3)cc2)nc(N2CC3CCC(C2)O3)n1 | 5.00 |  |  |  | 
2 | FC(F)c1nc2ccccc2n1-c1nc(N2CC3CCC(C2)O3)nc(N2CC3CCC(C2)O3)n1 | 6.34 | 6.91 |  |  | 
3 | O=C(O)CNC1CCN(c2nc(-c3ccc(NC(=O)Nc4ccncc4)cc3)nc(N3CC4CCC(C3)O4)n2)CC1 | 5.00 |  |  |  | 
4 | CN(C)C1CCN(c2ccc(NC(=O)Nc3ccc(-c4nc(N5C6CCC5COC6)nc(N5C6CCC5COC6)n4)cc3)cc2)CC1 |  | 5.51 | 9.00 |  | 
5 | CNC(=O)Nc1ccc(-c2nc(N3CC4CCC(C3)O4)nc(N3CC4CCC(C3)O4)n2)cc1 | 5.00 |  |  |  | 
6 | CN(C)CCN(C)c1ccc(NC(=O)Nc2ccc(-c3nc(N4C5CCC4COC5)nc(N4C5CCC4COC5)n3)cc2)cc1 |  | 5.22 | 8.66 |  | 
7 | CN(C)CCOc1ccc(NC(=O)Nc2ccc(-c3nc(N4CCSCC4)nc(N4C5CCC4COC5)n3)cc2)cc1 | 5.61 | 6.23 |  |  | 
8 | CCN(CC)C(=O)[n+]1ccc(NC(=O)Nc2ccc(-c3nc(N4CCOCC4)nc(N4C5CCC4COC5)n3)cc2)cc1 | 6.35 and 6.22 | 7.44 and 7.55 |  |  | 
9 | C[C@H]1COCCN1c1nc(-c2ccc(NC(=O)Nc3ccc(C(=O)NCCN4CCCC4)cc3)cc2)nc(N2CCOC[C@@H]2C)n1 | 6.42 | 7.66 |  | 6.97 | 7.59
10 | CN(C)CCN(C)C(=O)c1ccc(NC(=O)Nc2ccc(-c3nc(C4CCOCC4)nc(N4CCOCC4)n3)cc2)cc1 |  | 9.10 |  |  | 
11 | COCCNc1ccc(NC(=O)Nc2ccc(-c3nc(N4C5CCC4COC5)nc(N4C5CCC4COC5)n3)cc2)cc1 | 5.15 | 5.96 | 8.92 |  | 
12 | O=C(Nc1ccc(-c2nc(N3C[C@@H]4C[C@H]3CO4)nc(N3C[C@@H]4C[C@H]3CO4)n2)cc1)Nc1ccc(N2CCNCC2)cc1 |  |  | 7.00 |  | 
13 | O=C(Nc1ccc(C(=O)Cc2ccccn2)cc1)Nc1ccc(-c2nc(N3CCOCC3)nc(N3CCOCC3)n2)cc1 | 7.64 | 8.52 |  | 7.51 | 7.17
14 | CN1CCCN(c2nc(-c3ccc(NC(=O)Nc4cccnc4)cc3)nc(N3CC4CCC(C3)O4)n2)C1 | 5.00 |  |  |  | 
15 | CN(C)C1CCN(C(=O)c2ccc(NC(=O)Nc3ccc(-c4nc(-c5ccccc5)nc(N5CCOCC5)n4)cc3)cc2)CC1 | 7.69 | 8.46 |  | 6.60 | 7.24
16 | CC(C)Nc1nc(-c2ccc(NC(=O)Nc3ccc(N4CCN(C)CC4)nc3)cc2)nc(N2CC3CCC(C2)O3)n1 | 5.15 | 6.28 | 7.30 |  | 
